Measured values reported in patent US6077826A, “Synthetic macromolecular channel assembly for transport of chloride ions through epithelium useful in treating cystic fibrosis” (Kansas State University Research Foundation, priority 1998, dated 2000).

Experiments:
tetrameric channel = target: T1, tetrameric channel (Homo sapiens, UniProt P23415); conditions: lipid bilayers; cited from earlier work
T1 construct: 9-amino acid carrier template (tethers four peptide copies)

M2GlyR-stimulated Isc = experiment: Effect of Cl- transport inhibitors on M2GlyR-stimulated Isc in MDCK monolayers; format: cell-based, canine
[1] = test system: C-K4 -M2GlyR-generated (SEQ ID NO: 7) ISC across MDCK monolayers; experiment: Effect of Cl- transport inhibitors on C-K4-M2GlyR-generated Isc across MDCK monolayers; format: cell-based, canine; conditions: for fraction of stimulated current remaining: four monolayers
Procedure: Electrical measurements. MDCK cells (2.5×10^5) were plated on permeable supports (Snapwell, 12 mm dia.; Costar Corp), coated with a mixture of types I and III collagen (ICN, Costa Mesa, Ca.). The Snapwell supports were placed in a 6 well culture plate containing DME/F12+P/S and 1% FCS (0.4 mL in the upper part and 5 mL in the lower). MDCK monolayers were allowed to reach confluency and after 5 days of growth were mounted in Using chambers designed for cell culture (Costar). The position of the monolayer and the supporting membrane separated the apical and the basolateral compartments. Both sides of the monolayers were bathed in 5 mL of a Ringer's solution containing (in mM); 147 Na^+, 119 Cl^-, 20 HCO3^-, 6 alanine, 5 K^+, 5 acetate, 5 glucose, 4 lactate, 2.5 HPO4^- 1.2 Mg^+2, 1.2 SO4^-2 1 citrate, 0.5 butyric acid and 14 raffinose. The media in each half-chamber was circulated by a bubble-lift method with a gas mixture of 95% O2 /5% CO2 and maintained at 37° C. In experiments in which we removed chloride from the Ringer's solution, the molar equivalent of cyclamate was used.
The transepithelial voltage was measured using glass capillary tubes containing a plug of 5% agar in 3 M KCl and situated near each side of the cell layer. The glass tube was filled above the agar plug with 3 M KCl and Ag/AgCl electrodes were inserted into the KCI. Current electrodes consisted of a coil of platinum wire (30 gauge) located at the ends of each half-chamber. Transepithelial potential (Vtc); the short-circuitcurrent (Isc), the current necessary to clamp the voltage to zero; and the transepithelial resistance (Ftc) were measured at five minute intervals with a dual epithelial voltage clamp apparatus (Warner Instrument, Hamden, Conn.) as previously described in detail (Mangoo-Karimet al.; 1995). The average of the last two measurements in each period were used for comparison between pairs of monolayers and among each group.
In electrophysiological studies, niflumic acid, 5-nitro-2-(3-phenylpropylamino)-benzoate (NPPB, provided by SmithKline Beecham), diphenylamine-2-carboxylate (DPC, Fluka Chemika), and glibenclamide were dissolved in 100% ethanol. The maximal final concentration of ethanol, 0.5%, was without effect on Isc.
Effect of Cl^- channel blockers. We tested a variety of Cl^- channel blockers on the Isc generated by apical application of C-K4 -M2GlyR (SEQ ID NO: 7). […]. […] A negative change indicates a reduction in the current. The sensitivity sequence of the peptide-induced current to the Cl^- channel blockers was niflumic acid≥NPPB>DPC>glibenclamide>>>DIDS.

[2] = test system: forskolin-stimulated current; conditions: apical DPC, previously published dose response; cited from earlier work
MDCK monolayers [3] = experiment: Fluid secretion / fluid transport by MDCK monolayers (24 hr collection); conditions: 500 μM apical peptide or 10 μM basolateral forskolin, n = 12 (Table 6)
MDCK monolayers [4] = experiment: Intracellular cAMP by radioimmunoassay in MDCK monolayers; format: cell-based, canine; conditions: 10 μM forskolin, 2 hrs
Procedure: Cyclic adenosine monophosphate measurements. Confluent monolayers of MDCK cells were incubated in defined media (1.7 mL apical and 2.5 mL basolateral) or defined media containing either 10 μM basolateral forskolin or 500 μM apical C-K4 -[…] (SEQ ID NO: 7) for two hours. Monolayers were rinsed in Ca^+2 -, Mg^+2 -tree phosphate buffered saline (PBS), then treated with 5% trichloroacetic acid (TCA) to deactivate endogenous phosphodiesterases. […] Intracellular cAMP remained in the aqueous phase. After the water and ether phases separated, the water phase was collected. Relative levels of intracellular cAMP were determined by radioimmunoassay (Biomedical Technology Inc, Stoughton, Mass.) using methods previously described (Krishna and Terranova; 1987).

[5] = 100 μM basolateral bumetanide after 100 μM apical SEQ ID NO: 7, n = 8
[6] = 100 μM basolateral bumetanide after 100 μM apical SEQ ID NO: 7, n = 8, listed as bumetanide
[7] = 100 μM inhibitor apical for 20 minutes after 100 μM C-K4-M2GlyR, negative = inhibition

T1 sequence (P23415 278-300 limits assumed): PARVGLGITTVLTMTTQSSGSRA

O=C(O)c1c2ccccc2cc2ccccc12 [9-AC, 9-anthracene carboxylic acid]
block of the tetrameric channel (tetrameric channel): blocked

CCCCNc1cc(C(=O)O)cc(S(N)(=O)=O)c1Oc1ccccc1 [Bumetanide, bumetanide]
Isc after subsequent addition of bumetanide (M2GlyR-stimulated Isc; 100 μM basolateral bumetanide after M2GlyR, five experiments): 1.3±0.3 μA/cm^2
ISC after bumetanide [1, 5]: 1.4 ± 0.4 μA/cm^2
Rtc after bumetanide [1, 5]: 2145 ± 474 Ohms.cm^2
Vtc after bumetanide [1, 5]: -2.8±0.6 mV
ISC after bumetanide [1, 6]: 1.4 μA/cm^2
Rtc after bumetanide [1, 6]: not significant
inhibition of the peptide-generated Isc ([1]; 100 μM basolateral bumetanide, n = 8): 97%
effect on the peptide-generated current ([1]; 100 μM basolateral bumetanide, typical experiment FIG. 6): blocked the peptide-generated current

O=C(O)c1ccccc1Nc1ccccc1 [DPC, diphenylamine-2-carboxylate]
dose of DPC required to significantly inhibit the forskolin-stimulated current [2]: 3 mM
DPC concentration sufficient to return Isc to the control level (M2GlyR-stimulated Isc; apical DPC after M2GlyR, four experiments): < 1 mM
fraction of stimulated current remaining ([1]; 100 μM apical DPC): 68±2%
100 μM inhibitor (percent change) in ISC [1, 7]: -38.0 ± 0.8%
fraction of stimulated current remaining ([1]; 1 mM apical DPC): 41±6%
fraction of stimulated current remaining ([1]; 3 mM apical DPC): 26±5%

COc1ccc(Cl)cc1C(=O)NCCc1ccc(S(=O)(=O)NC(=O)NC2CCCCC2)cc1 [Glibenclamide, glibenclamide]
percent change in Isc at 100 µM ([1]; Canis lupus familiaris, MDCK, 20 min, 100 μM inhibitor apical for 20 minutes after 100 μM C-K4-M2GlyR, negative = inhibition): -18 ± 3.1%

O=C(O)c1cc([N+](=O)[O-])ccc1NCCCc1ccccc1 [NPPB, 5-nitro-2-(3-phenylpropylamino)-benzoate]
100 μM inhibitor (percent change) in ISC [1, 7]: -55.2 ± 4.5%

O=C(O)c1cccnc1Nc1cccc(C(F)(F)F)c1 [Niflumic acid, niflumic acid]
block of the tetrameric channel (tetrameric channel): blocked
inhibition at 100 µM ([1]; Canis lupus familiaris, MDCK, 20 min, heading: 100 inhibitor in ISC, 100 μM inhibitor apical for 20 minutes after 100 μM C-K4-M2GlyR, negative = inhibition, read-out: 100 μM inhibitor (percent change) in ISC): 57.1 ± 3.8%

Cc1cccc(C)c1NC(=O)C[N+](C)(C)C [QX-222]
block of the tetrameric channel (tetrameric channel): not blocked

O=C1C[C@@H]2OCC=C3CN4CC[C@]56c7ccccc7N1[C@H]5[C@H]2[C@H]3C[C@H]46 [Strychnine]
block of the tetrameric channel (tetrameric channel): does not block

C=C[C@@]1(C)CC(=O)[C@]2(O)[C@@]3(C)[C@@H](O)CCC(C)(C)[C@@H]3[C@H](O)[C@H](OC(C)=O)[C@@]2(C)O1 [forskolin]
fluid transport by MDCK monolayers (MDCK monolayers [3]): 0.47 ± 0.05 μL/hr/cm^2
increase of cAMP levels above the control (MDCK monolayers [4]): 266%
